pKi: −log10 of the molar value.
Target: Neuronal acetylcholine receptor subunit alpha-7 (Mus musculus, UniProt P49582)
Test: Displacement of [125I]alpha-bungarotoxin from alpha7 nAChR in C57BL/6J mouse hippocampal membrane

Chain of Neuronal acetylcholine receptor subunit alpha-7 (P49582 whole entry): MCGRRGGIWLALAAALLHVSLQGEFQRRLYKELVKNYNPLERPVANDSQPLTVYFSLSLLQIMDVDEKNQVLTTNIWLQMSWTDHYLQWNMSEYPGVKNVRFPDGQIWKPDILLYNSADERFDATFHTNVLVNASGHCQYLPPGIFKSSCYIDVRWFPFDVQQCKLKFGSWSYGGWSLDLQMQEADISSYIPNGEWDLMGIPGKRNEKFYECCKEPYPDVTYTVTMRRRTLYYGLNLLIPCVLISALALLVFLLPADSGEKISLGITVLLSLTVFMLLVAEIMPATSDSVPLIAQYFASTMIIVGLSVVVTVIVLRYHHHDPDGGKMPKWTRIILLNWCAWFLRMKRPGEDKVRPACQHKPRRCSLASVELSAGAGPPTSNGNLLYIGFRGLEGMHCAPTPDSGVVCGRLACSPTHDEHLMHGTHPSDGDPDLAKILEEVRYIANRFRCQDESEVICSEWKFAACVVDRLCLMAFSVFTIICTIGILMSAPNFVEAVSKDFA

How did the pKi turn out when `O=C(O)[C@@H](O)[C@H](O)[C@H](O)[C@@H](O)C(=O)O` was run?
The pKi was < 5.00.
